From patent US7732442B2 (Ono Pharmaceutical Co., Ltd., priority 2003, dated 2010)

Biological target: T1, human CCR4 (Homo sapiens, UniProt P51679)
T1 construct: expressed in transfected cells; host or cells: CHO-dhfr(-)
T1 sequence (P51679 1-360): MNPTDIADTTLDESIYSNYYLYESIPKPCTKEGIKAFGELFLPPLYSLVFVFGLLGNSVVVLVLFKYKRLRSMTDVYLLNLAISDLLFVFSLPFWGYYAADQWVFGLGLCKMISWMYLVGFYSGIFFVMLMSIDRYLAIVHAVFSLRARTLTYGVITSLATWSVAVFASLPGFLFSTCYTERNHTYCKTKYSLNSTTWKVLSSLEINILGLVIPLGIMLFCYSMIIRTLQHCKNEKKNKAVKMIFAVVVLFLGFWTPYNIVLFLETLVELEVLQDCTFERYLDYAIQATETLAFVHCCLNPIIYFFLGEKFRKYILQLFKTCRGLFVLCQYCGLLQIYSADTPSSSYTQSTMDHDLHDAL
Assay: Inhibition test on activity of MDC mediated by CCR4 (MDC-induced transient increase of Ca ions) in CCR4/CHO cells
Assay type: cell-based
Conditions: in the presence of 0.3% BSA; human MDC 10 nM; CCR4/CHO cell; read-out: IC50 value (inhibition of Ca2+ transient increase by MDC)
Experimental: Human bone marrow cell cDNA was prepared using Marathon cDNA amplification kit (manufactured by Clontech). PCR primers hCCR4XbaI-F1 (SEQ ID NO:1) and hCCR4XbaI-R1 (SEQ ID NO:2) were designed based on the sequence of GenBankX85740.
Using the human bone marrow cell cDNA as the template and using Ex Taq (manufactured by Takara), a PCR reaction (2 minutes at 95° C.→[30 seconds at 95° C., 45 seconds at 60° C., 1 minute at 72° C.]×35 times) was carried out. The thus amplified PCR product was subjected to 1% agarose gel electrophoresis, purified using QIAquick Gel Extraction Kit (manufactured by QUIAGEN) and then digested with a restriction enzyme XbaI. […]
The thus established human CCR4 stably overexpressing CHO cell (CCR4/CHO cell) was suspended in Ham's F-12 medium and FBS (10%) and dispensed into a 96-well plate at 3.0×10^4 cells/well. […] Transient increase in the intracellular Ca^2+ concentration induced by the human MDC was measured using a Ca^2+ detector for 96-well (manufactured by Hamamatsu Photonics), and inhibition ratio (%) of the test compound was calculated by the following equation: Inhibition ratio=[(Ec−Ea)/Ec]×100 • Ec: measured value of Ca^2+ transient increase by MDC; and • Ea: measured value of Ca^2+ transient increase by MDC when a test compound was added […]

Structure (SMILES) | IC50
COc1ccc(COc2cc(Br)cnc2NS(=O)(=O)c2ccc(C)cc2)cc1OCCN(C)C [Example 2(2), N-[5-bromo-3-({3-[2-(dimethylamino)ethoxy]-4-methoxybenzyl}oxy)pyridin-2-yl]-4-methylbenzenesulfonamide] | 0.23 µM
Cc1cnc(NS(=O)(=O)c2ccccc2Cl)c(OCc2ccc(Cl)c(OCC3CCN(C)CC3)c2)n1 [Example 6(1)] | 0.08 µM
